Experimental data: PubChem BioAssay (NCI)
Where “and” joins values, the source holds several entries; their conditions need not be identical. Equal entries are not always repeated.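 Step 1: Grow cells in 96-well plates. Step 2: Expose to compound for 48 hours at 5 concentrations. Step 3: Interpolate endpoints linearly; if unreached, use highest concentration. The concentration for 50% growth inhibition is given as GI50. TGI denotes the concentration required for complete inhibition of growth.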

How the values were obtained:
Assay in all cases: inhibition of tumour cell growth, NCI panel, 48 h
DU-145 prostate = test system: DU-145 prostate
HCT-15 colon = test system: HCT-15 colon
HL-60(TB) leukemia = test system: HL-60(TB) leukemia
MCF7 breast = test system: MCF7 breast
NCI-H226 lung = test system: NCI-H226 lung
OVCAR-3 ovarian = test system: OVCAR-3 ovarian
SK-OV-3 ovarian = test system: SK-OV-3 ovarian
SN12C renal = test system: SN12C renal
SNB-75 CNS = test system: SNB-75 CNS
TK-10 renal = test system: TK-10 renal

Row | Structure (SMILES) | GI50 (DU-145 prostate) | TGI (DU-145 prostate) | GI50 (HCT-15 colon) | TGI (HCT-15 colon) | GI50 (HL-60(TB) leukemia) | TGI (HL-60(TB) leukemia) | GI50 (MCF7 breast) | TGI (MCF7 breast) | GI50 (NCI-H226 lung) | TGI (NCI-H226 lung) | GI50 (OVCAR-3 ovarian) | TGI (OVCAR-3 ovarian) | GI50 (SK-OV-3 ovarian) | TGI (SK-OV-3 ovarian) | GI50 (SN12C renal) | TGI (SN12C renal) | GI50 (SNB-75 CNS) | TGI (SNB-75 CNS) | GI50 (TK-10 renal) | TGI (TK-10 renal)
1 | NCCCCCCCCn1c2c(c3ccccc3c1=O)C(=O)c1ccccc1-2 | 3.4 µM | 14 µM | 3.26 µM | 10.2 µM | 2.34 µM | 6.23 µM | 7.45 µM | 46.2 µM | 14 µM | 34.8 µM | 3.5 µM | 11.6 µM | 16.6 µM | 39.4 µM | 3.45 µM | 11.3 µM | 7.65 µM | 26.8 µM | 1.93 µM | 3.88 µM
2 | CN1CCC(CNc2ccc3ncc(-c4cccc(OC(F)(F)F)c4)n3n2)CC1 | 3.35 µM and 3.6 µM | 13.4 µM and > 10 µM | 2 µM and 2.45 µM | 4.78 µM and > 10 µM | 1.54 µM and 1 µM | 3.79 µM and 2.89 µM | 1.61 µM and 1.81 µM | 3.25 µM and 5.46 µM | 1.82 µM and 3.62 µM | 8.49 µM and > 10 µM | 1.7 µM and 2.15 µM | 3.79 µM and > 10 µM | 1.89 µM and 3.94 µM | 4.98 µM and > 10 µM | 2.14 µM and 2.3 µM | 7.14 µM and > 10 µM | 1.39 µM and 1.09 µM | 4.46 µM and 8.12 µM | 2.36 µM and 2.16 µM | 8.52 µM and > 10 µM
3 | COC(=O)[C@H]1C(=O)[C@@]2(C)[C@H]([C@H](OC(=O)c3ccccc3)[C@]3(O)C[C@H](OC(=O)[C@H](O)[C@@H](NC(=O)c4ccc(F)cc4)c4ccccc4)C(C)=C1C3(C)C)[C@]1(OC(C)=O)CO[C@@H]1C[C@@H]2O | 0.00708 µM | 0.023 µM | 0.553 µM | > 25 µM | 0.00614 µM | 0.0184 µM | 0.00354 µM | > 25 µM | 0.612 µM | > 25 µM | 0.00722 µM | 0.0222 µM | 0.0115 µM | > 25 µM | 0.0104 µM | > 25 µM | 0.00273 µM | 0.0443 µM | 0.0676 µM | 3.91 µM
4 | COC(=O)[C@@]1(Cc2ccccc2)[C@H]2c3cc(C(=O)N4CCCC4)n(Cc4ccc(OC)c(OC)c4)c3C[C@H]2CN1C(=O)c1ccccc1 | 15 µM | > 50 µM | 7.77 µM | 14.5 µM | 8.96 µM | 24.8 µM | 13.8 µM | 44.8 µM | 9.78 µM | 19.3 µM | 9.03 µM | 21 µM | 18.9 µM | > 50 µM | 9.96 µM | 24.8 µM | 17.4 µM | > 50 µM | 16 µM | 43.9 µM
5 | C[C@H](N)C(=O)N[C@@H]1[C@H]2C(=C(O)C[C@@H](O)[C@@H]2O)C(=O)O[C@]1(C)C(Cl)Cl | 0.372 µM | – | 0.894 µM | 10.1 µM and 5.57 µM | 0.254 µM and 0.149 µM | – | – | 1.52 µM | 0.266 µM | 1.34 µM and 1.06 µM | 0.454 µM | 9.36 µM and 1.94 µM | 0.2 µM | 2.25 µM and 1.95 µM | 0.212 µM | 1.23 µM and 1.67 µM | 0.226 µM | 3.85 µM and 1.07 µM | 0.685 µM | 6.92 µM and 2.06 µM
6 | COc1c2c3ccccc3nc-2n(C)c2ccccc12 | 9.48 µM | 45.5 µM | 5.29 µM | 50.6 µM | 9.88 µM | 47.6 µM | 4.31 µM | 33.1 µM | 6.77 µM | 74.3 µM | 21 µM | > 100 µM | – | – | 7.27 µM | 35.9 µM | 14.1 µM | 35.4 µM | 11.7 µM | 58.5 µM
7 | COc1cc(-c2nc(NC(C)=O)sc2-c2ccnc(NCCNS(=O)(=O)c3ccccc3)n2)ccc1Cl | 5.11 µM | > 100 µM | 3.78 µM | > 100 µM | 3.14 µM | 7.45 µM | 2.4 µM | > 100 µM | 6.45 µM | > 100 µM | 3.09 µM | 32.6 µM | 4.77 µM | > 100 µM | 5.47 µM | > 100 µM | 1.49 µM | 7.19 µM | 6.33 µM | > 100 µM
8 | COc1ccccc1-c1cc(/C=C2\C(=O)Nc3ncc(Br)cc32)cc(Br)c1O | 17.6 µM | > 25 µM | 9.6 µM | > 25 µM | 7.47 µM | 23.7 µM | 8.05 µM | > 25 µM | 12.5 µM | > 25 µM | 9.51 µM | > 25 µM | > 21.3 µM | > 25 µM | 12.1 µM | > 25 µM | 6.03 µM | > 25 µM | 9.95 µM | > 25 µM
9 | C=CC(=O)N1C/C(=C\c2ccccc2)C(=O)/C(=C/c2ccccc2)C1 | – | 15.9 µM | – | 4 µM | 0.805 µM | 7.4 µM | 0.395 µM | 2.06 µM | – | 10.6 µM | – | 4.47 µM | – | 7.58 µM | – | 3.44 µM | – | 10 µM | – | 7 µM
10 | CC(C)CCSC1=CC(=O)c2ccccc2C1=O | 12.1 µM | 25.8 µM | 6.61 µM | 19.1 µM | 0.325 µM | 0.943 µM | 1.42 µM | 3.63 µM | 6.82 µM | 32.8 µM | 1.17 µM | 2.39 µM | 26.1 µM | > 81.2 µM | 12.9 µM | 25.8 µM | 0.811 µM | > 46.9 µM | 12.4 µM | 24.8 µM
11 | CNC1C(O)C(OC2C(N)CC(N)C(OC3OC(CN)=CCC3N)C2O)OCC1(C)O (stereo not drawn) | – | > 100 µM | – | > 100 µM | – | > 100 µM | – | > 100 µM | – | > 100 µM | – | > 100 µM | – | > 100 µM | – | > 100 µM | – | > 100 µM | – | –
12 | Cc1ccc2c(c1)C(C)Cc1c(ncnc1-n1cnc3cc(C)ccc31)N2C (stereo not drawn) | 0.0379 µM | 11.1 µM | 0.0334 µM | 11.7 µM | 0.025 µM | 0.0557 µM | 0.0345 µM | 12.8 µM | 0.0551 µM | 22.8 µM | – | – | 0.0295 µM | 1.09 µM | 0.086 µM | 16.3 µM | 0.0262 µM | 13.4 µM | 0.0866 µM | 21.1 µM
13 | CO/[N+]([O-])=C\C(=O)N/C=C/C(=O)O | – | > 100 µM | – | > 100 µM | – | > 100 µM | – | > 100 µM | – | > 100 µM | – | > 100 µM | – | > 100 µM | – | > 100 µM | – | > 100 µM | – | –
